Measured values published in PubChem BioAssay AID328 (DTP/NCI, 2004).
Several values for one entry are separate records, joined by “and”; a condition that tells them apart may be missing. Equal values may be shown once. Inconclusive results and toxic doses are left out.

Tested on: BDF1 mice, P388 leukemia ip, median survival T/C
Experiment: NCI In Vivo Anticancer Drug Screen. Data for tumor model P388 Leukemia (intraperitoneal) in B6D2F1 (BDF1) mice
Conditions: endpoint: median survival time, higher = longer survival
Summary of the method: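 Antitumour effect was judged in vivo: survival in drug-treated mice, normalised to that of vehicle-dosed controls, gives the reported T/C.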

[1] = dose: 100.0 mg/kg/injection, schedule: Q01DX001 (ip), vehicle: saline with Tween-80
[2] = dose: 200.0 mg/kg/injection, schedule: Q01DX001 (ip), vehicle: saline with Tween-80
[3] = dose: 400.0 mg/kg/injection, schedule: Q01DX001 (ip), vehicle: saline with Tween-80
[4] = dose: 100.0 mg/kg/injection, schedule: Q01DX009 (ip), vehicle: saline with Tween-80
[5] = dose: 100.0 mg/kg/injection, schedule: Q04DX003 (ip), vehicle: saline with Tween-80
[6] = dose: 200.0 mg/kg/injection, schedule: Q01DX009 (ip), vehicle: saline with Tween-80
[7] = dose: 200.0 mg/kg/injection, schedule: Q04DX003 (ip), vehicle: saline with Tween-80
[8] = dose: 400.0 mg/kg/injection, schedule: Q01DX009 (ip), vehicle: saline with Tween-80
[9] = dose: 400.0 mg/kg/injection, schedule: Q04DX003 (ip), vehicle: saline with Tween-80
[10] = dose: 100.0 mg/kg/injection, schedule: Q01DX009 (ip), vehicle: Klucel (hydroxypropylcellulose) (HPC)
[11] = dose: 100.0 mg/kg/injection, schedule: Q04DX003 (ip), vehicle: Klucel (hydroxypropylcellulose) (HPC)
[12] = dose: 200.0 mg/kg/injection, schedule: Q04DX003 (ip), vehicle: Klucel (hydroxypropylcellulose) (HPC)
[13] = dose: 400.0 mg/kg/injection, schedule: Q01DX009 (ip), vehicle: Klucel (hydroxypropylcellulose) (HPC)
[14] = dose: 400.0 mg/kg/injection, schedule: Q04DX003 (ip), vehicle: Klucel (hydroxypropylcellulose) (HPC)
[15] = dose: 200.0 mg/kg/injection, schedule: Q01DX009 (ip), vehicle: Klucel (hydroxypropylcellulose) (HPC)
[16] = dose: 25.0 mg/kg/injection, schedule: Q01DX009 (ip), vehicle: Klucel (hydroxypropylcellulose) (HPC)
[17] = dose: 50.0 mg/kg/injection, schedule: Q01DX009 (ip), vehicle: Klucel (hydroxypropylcellulose) (HPC)
[18] = dose: 25.0 mg/kg/injection, schedule: Q01DX009 (ip), vehicle: saline with Tween-80
[19] = dose: 50.0 mg/kg/injection, schedule: Q01DX009 (ip), vehicle: saline with Tween-80

COc1cc(/C=N/N=C(\N)N[N+](=O)[O-])cc(OC)c1OC
T/C [1]: 90 % of control
T/C [2]: 90 % of control
T/C [3]: 90 % of control

C1CCCC2(CCC1)OCCO2
T/C (dose: 50.0 mg/kg/injection, schedule: Q04DX003 (ip), vehicle: saline with Tween-80): 94 % of control
T/C [4]: 109 % of control
T/C [5]: 100 % of control
T/C [6]: 100 % of control
T/C [7]: 115 % of control and 119 % of control
T/C [8]: 109 % of control
T/C [9]: 112 % of control and 120 % of control

COc1cccc2c1C(=O)c1c(O)c3c(c(O)c1C2=O)CC(O)(C(C)=O)CC3O (configuration not stated)
T/C (dose: 1.25 mg/kg/injection, schedule: Q01DX001 (ip), vehicle: saline): 95 % of control and 104 % of control
T/C (dose: 2.5 mg/kg/injection, schedule: Q01DX001 (ip), vehicle: saline): 100 % of control and 110 % of control
T/C (dose: 5.0 mg/kg/injection, schedule: Q01DX001 (ip), vehicle: saline): 100 % of control
T/C (dose: 10.0 mg/kg/injection, schedule: Q01DX001 (ip), vehicle: saline): 100 % of control and 109 % of control

Nc1ccccc1C(=O)OCCc1ccccc1
T/C [10]: 100 % of control
T/C [11]: 95 % of control
T/C [12]: 91 % of control
T/C (dose: 266.0 mg/kg/injection, schedule: Q01DX009 (ip), vehicle: Klucel (hydroxypropylcellulose) (HPC)): 94 % of control
T/C [13]: 110 % of control
T/C [14]: 95 % of control
T/C (dose: 600.0 mg/kg/injection, schedule: Q01DX009 (ip), vehicle: Klucel (hydroxypropylcellulose) (HPC)): 100 % of control

CC(=O)[C@@]1(O)CC[C@H]2[C@@H]3C[C@H](C)C4=CC(=O)CC[C@]4(C)[C@H]3[C@@H](O)C[C@@]21C
T/C [5]: 109 % of control
T/C [6]: 122 % of control
T/C [7]: 109 % of control
T/C [8]: 90 % of control
T/C [9]: 118 % of control

CC(C(=O)O)c1ccc2c(c1)[nH]c1ccc(Cl)cc12 (configuration not stated)
T/C [4]: 89 % of control
T/C [6]: 91 % of control

Nc1ccc(NS(=O)(=O)Cc2ccccc2)cc1
T/C (dose: 25.0 mg/kg/injection, schedule: Q01DX001 (ip), vehicle: saline with Tween-80): 100 % of control
T/C (dose: 50.0 mg/kg/injection, schedule: Q01DX001 (ip), vehicle: saline with Tween-80): 100 % of control
T/C [1]: 100 % of control

CN(C(=O)N(C)c1ccccc1)c1ccccc1
T/C [10]: 100 % of control
T/C [11]: 91 % of control
T/C [15]: 90 % of control
T/C [12]: 91 % of control
T/C [13]: 100 % of control
T/C [14]: 87 % of control

COc1cccc2c1C(=O)c1c(O)c3c(c(O)c1C2=O)C[C@@](O)(C(=O)CO)C[C@@H]3OC1CC(NC(C)=O)C(O)C(C)O1 (some centres not stated)
T/C (dose: 25.0 mg/kg/injection, schedule: Q04DX009 (ip), vehicle: other): 119 % of control
T/C (dose: 100.0 mg/kg/injection, schedule: Q04DX009 (ip), vehicle: other): 119 % of control
T/C (dose: 200.0 mg/kg/injection, schedule: Q04DX009 (ip), vehicle: other): 119 % of control

CCN(CC)CC(C)Nc1ccc(C)c2sc3ccccc3c(=O)c12 (configuration not stated)
T/C (dose: 33.0 mg/kg/injection, schedule: Q04DX003 (ip), vehicle: saline sonified): 118 % of control
T/C (dose: 44.0 mg/kg/injection, schedule: Q01DX009 (ip), vehicle: saline): 159 % of control
T/C (dose: 66.0 mg/kg/injection, schedule: Q01DX009 (ip), vehicle: saline): 200 % of control and 209 % of control
T/C (dose: 100.0 mg/kg/injection, schedule: Q01DX009 (ip), vehicle: saline): 190 % of control
T/C (dose: 112.5 mg/kg/injection, schedule: Q04DX003 (ip), vehicle: saline sonified): 154 % of control
T/C (dose: 300.0 mg/kg/injection, schedule: Q04DX003 (ip), vehicle: saline sonified): 163 % of control

Cc1nc2ccccc2c(Cl)c1C
T/C [16]: 102 % of control
T/C [17]: 105 % of control
T/C [10]: 103 % of control

COc1cc(OC)c(Br)c(OC)c1
T/C [10]: 100 % of control
T/C [11]: 112 % of control
T/C [15]: 100 % of control
T/C [12]: 104 % of control
T/C [13]: 116 % of control
T/C [14]: 100 % of control

Cc1ccc(N=Nc2nc3nc(N)[nH]c(=O)c3[nH]2)cc1
T/C (dose: 50.0 mg/kg/injection, schedule: Q01DX005 (ip), vehicle: saline with Tween-80): 100 % of control
T/C (dose: 100.0 mg/kg/injection, schedule: Q01DX005 (ip), vehicle: saline with Tween-80): 105 % of control
T/C (dose: 200.0 mg/kg/injection, schedule: Q01DX005 (ip), vehicle: saline with Tween-80): 87 % of control

CC(C)CCCC(C)C1CCC2C3CC=C4CC(OP(=O)(N5CC5)N5CC5)CCC4(C)C3CCC12C (configuration not stated)
T/C [18]: 98 % of control
T/C [19]: 100 % of control
T/C [4]: 117 % of control
T/C [6]: 110 % of control

COC(=O)c1cc[nH]c1CC(=O)O
T/C [1]: 101 % of control
T/C [2]: 106 % of control
T/C [3]: 110 % of control

CCC(=O)N(C)[C@@H](C)C(=O)O[C@H]1CC(=O)N(C)c2cc(cc(OC)c2Cl)C/C(C)=C/C=C[C@@H](OC)[C@@]2(O)C[C@H](OC(=O)N2)[C@@H](C)[C@@H]2O[C@@]12C
T/C (dose: 0.2 micrograms/kg/injection, schedule: Q01DX009 (ip), vehicle: saline): 120 % of control
T/C (dose: 1.6 micrograms/kg/injection, schedule: Q01DX009 (ip), vehicle: saline): 154 % of control
T/C (dose: 3.1 micrograms/kg/injection, schedule: Q01DX009 (ip), vehicle: saline): 150 % of control
T/C (dose: 12.5 micrograms/kg/injection, schedule: Q01DX009 (ip), vehicle: saline): 104 % of control

COc1ccc2[nH]c(-c3ccccc3)c(-c3ccccc3)c2c1
T/C [18]: 95 % of control
T/C [19]: 90 % of control
T/C [4]: 90 % of control

CCCCN(CCCC)CC(O)c1cc(Cl)cc2cccnc12 (configuration not stated)
T/C (dose: 3.12 mg/kg/injection, schedule: Q01DX009 (ip), vehicle: saline with Tween-80): 100 % of control
T/C (dose: 6.25 mg/kg/injection, schedule: Q01DX009 (ip), vehicle: saline with Tween-80): 104 % of control
T/C (dose: 12.5 mg/kg/injection, schedule: Q01DX009 (ip), vehicle: saline with Tween-80): 108 % of control
T/C [16]: 87 % of control and 92 % of control
T/C (dose: 25.0 mg/kg/injection, schedule: Q04DX003 (ip), vehicle: Klucel (hydroxypropylcellulose) (HPC)): 108 % of control
T/C [17]: 100 % of control and 108 % of control
T/C (dose: 50.0 mg/kg/injection, schedule: Q04DX003 (ip), vehicle: Klucel (hydroxypropylcellulose) (HPC)): 100 % of control

Clc1ccc(/C(=C(\Br)c2ccccc2)c2ccccc2)cc1
T/C [4]: 104 % of control and 100 % of control
T/C [6]: 86 % of control and 100 % of control
T/C [8]: 95 % of control and 90 % of control

Nc1ccc(OC(=O)Oc2ccc(N)cc2)cc1
T/C (dose: 264.0 mg/kg/injection, schedule: Q01DX009 (ip), vehicle: saline with Tween-80): 100 % of control
T/C [8]: 104 % of control

O=[n+]1c2ccccc2n([O-])c2ccccc21.[Cl][Cu][Cl]
T/C (dose: 6.25 mg/kg/injection, schedule: Q04DX003 (ip), vehicle: saline with Tween-80): 101 % of control
T/C (dose: 12.5 mg/kg/injection, schedule: Q04DX003 (ip), vehicle: saline with Tween-80): 116 % of control

Nc1nc(-c2ccccc2)ns1
T/C (dose: 25.0 mg/kg/injection, schedule: Q01DX009 (ip), vehicle: saline sonified): 100 % of control
T/C (dose: 50.0 mg/kg/injection, schedule: Q01DX009 (ip), vehicle: saline sonified): 100 % of control

CCOC(=O)CCC(NC(=O)N(CCCl)CCCl)C(=O)OCC (configuration not stated)
T/C (dose: 132.0 mg/kg/injection, schedule: Q04DX003 (ip), vehicle: saline with Tween-80): 175 % of control
T/C [7]: 204 % of control
T/C (dose: 300.0 mg/kg/injection, schedule: Q04DX003 (ip), vehicle: saline with Tween-80): 183 % of control

c1ccc(Cn2ccnc2)cc1
T/C (dose: 3.12 mg/kg/injection, schedule: Q01DX009 (ip), vehicle: water): 87 % of control
T/C (dose: 6.25 mg/kg/injection, schedule: Q01DX009 (ip), vehicle: water): 92 % of control
T/C (dose: 12.5 mg/kg/injection, schedule: Q01DX009 (ip), vehicle: water): 87 % of control
T/C (dose: 25.0 mg/kg/injection, schedule: Q01DX009 (ip), vehicle: water): 99 % of control
T/C (dose: 50.0 mg/kg/injection, schedule: Q01DX009 (ip), vehicle: water): 100 % of control
T/C (dose: 100.0 mg/kg/injection, schedule: Q01DX009 (ip), vehicle: water): 86 % of control
